Measured values taken from paper PMC9178010, “Identification and characterization of a prokaryotic 6-4 photolyase from Synechococcus elongatus with a deazariboflavin antenna chromophore” (Nucleic Acids Research, 2022).

Columns and labels:
Type in all cases: binding
[1] = biological target: T1, SePhrA (SePhrA[ScFbiC]) (Synechococcus elongatus, UniProt Q31S25); assay: co-purified cofactor; absorption, fluorescence and TLC of denatured protein; settings: antenna chromophore; co-expressed with S. coelicolor FO synthase FbiC
T1 construct: gene Synpcc7942_0112; full-length gene in pET22b, E. coli BL21(DE3), co-expressed with S. coelicolor FbiC; Ni-NTA and Superdex 200
T1 sequence (Q31S25 1-484): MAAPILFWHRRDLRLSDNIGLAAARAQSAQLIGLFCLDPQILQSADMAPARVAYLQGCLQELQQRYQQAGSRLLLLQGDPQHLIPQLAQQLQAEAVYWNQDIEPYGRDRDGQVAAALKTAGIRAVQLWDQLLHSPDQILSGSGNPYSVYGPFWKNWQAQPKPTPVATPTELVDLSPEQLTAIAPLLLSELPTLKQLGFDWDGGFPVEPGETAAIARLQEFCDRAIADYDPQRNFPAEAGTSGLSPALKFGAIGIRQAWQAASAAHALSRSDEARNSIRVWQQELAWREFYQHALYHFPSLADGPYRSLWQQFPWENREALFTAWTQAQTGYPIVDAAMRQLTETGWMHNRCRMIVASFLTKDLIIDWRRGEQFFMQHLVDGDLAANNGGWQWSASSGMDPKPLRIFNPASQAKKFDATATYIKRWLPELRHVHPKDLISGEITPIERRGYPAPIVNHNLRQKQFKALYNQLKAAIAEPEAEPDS

[2] = biological target: T2, SePhrB (SePhrB[Ec]; SePhrB[ScFbiC]; SePhrB[8-HDF]) (Synechococcus elongatus, UniProt Q31P18); assay: as above
T2 construct: gene Synpcc7942_1171; full-length gene in pET22b, E. coli BL21(DE3), Ni-NTA and Superdex 200; iron-sulfur cluster protein; expressed alone or with S. coelicolor FbiC
T2 sequence (Q31P18 1-503): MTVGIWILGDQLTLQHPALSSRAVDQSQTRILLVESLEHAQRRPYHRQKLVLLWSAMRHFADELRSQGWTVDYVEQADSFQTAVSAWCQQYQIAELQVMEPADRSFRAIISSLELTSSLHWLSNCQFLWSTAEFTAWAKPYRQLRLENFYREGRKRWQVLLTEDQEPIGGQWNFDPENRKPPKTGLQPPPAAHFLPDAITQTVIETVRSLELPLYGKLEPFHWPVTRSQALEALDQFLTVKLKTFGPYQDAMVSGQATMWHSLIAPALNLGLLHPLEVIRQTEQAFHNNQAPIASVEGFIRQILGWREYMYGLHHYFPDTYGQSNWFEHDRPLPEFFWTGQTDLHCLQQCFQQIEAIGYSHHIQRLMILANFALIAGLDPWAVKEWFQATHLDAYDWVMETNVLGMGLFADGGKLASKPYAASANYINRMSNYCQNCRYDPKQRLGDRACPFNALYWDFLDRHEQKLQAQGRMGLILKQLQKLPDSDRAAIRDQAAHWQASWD

[3] = biological target: T3, AfPhrB (Agrobacterium fabrum, UniProt A9CH39); assay: as above; settings: co-purified from E. coli
T3 construct: gene phrB; synthetic phrB gene in pET22b, E. coli BL21(DE3), Ni-NTA and Superdex 200
T3 sequence (A9CH39 whole entry): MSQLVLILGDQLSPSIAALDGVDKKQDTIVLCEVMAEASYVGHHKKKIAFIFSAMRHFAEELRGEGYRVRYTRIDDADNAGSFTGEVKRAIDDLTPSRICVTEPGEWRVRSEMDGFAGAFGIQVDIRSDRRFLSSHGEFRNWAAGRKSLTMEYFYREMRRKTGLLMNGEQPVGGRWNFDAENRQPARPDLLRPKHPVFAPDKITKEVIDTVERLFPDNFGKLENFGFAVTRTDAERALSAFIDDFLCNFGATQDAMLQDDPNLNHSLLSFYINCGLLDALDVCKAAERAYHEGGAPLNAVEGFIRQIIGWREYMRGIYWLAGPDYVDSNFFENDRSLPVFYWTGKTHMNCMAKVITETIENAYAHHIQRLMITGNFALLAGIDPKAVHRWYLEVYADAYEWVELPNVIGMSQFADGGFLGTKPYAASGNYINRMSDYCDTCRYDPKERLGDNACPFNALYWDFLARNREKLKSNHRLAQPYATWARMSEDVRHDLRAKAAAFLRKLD

[4] = biological target: T1, SePhrA (SePhrA[ScFbiC]); assay: TLC of denatured protein supernatant; settings: catalytic cofactor; co-expressed with S. coelicolor FO synthase FbiC

O=c1nc2n(C[C@H](O)[C@H](O)[C@H](O)CO)c3cc(O)ccc3cc-2c(=O)[nH]1 [8-HDF, 7,8-didemethyl-8-hydroxy-5-deazariboflavin]
co-purified cofactor; absorption, fluorescence and TLC of denatured protein [1]: an additional bright blue band that was attributed to 8-HDF | co-purified cofactor; absorption, fluorescence and TLC of denatured protein ([2]; antenna chromophore, co-expressed with S. coelicolor FO synthase FbiC): SePhrB associates with FAD and 8-HDF when co-expressed with the ScFbiC

Cc1nc2c(=O)[nH]c(=O)nc-2n(C[C@H](O)[C@H](O)[C@H](O)CO)c1C [DMRL, 6,7-dimethyl-8-ribityllumazine]
co-purified cofactor; absorption, fluorescence and TLC of denatured protein ([3]; antenna chromophore): a yellow fluorescent band of FAD, and a blue-green fluorescent band of DMRL

Cc1cc2nc3c(=O)[nH]c(=O)nc-3n(C[C@H](O)[C@H](O)[C@H](O)COP(=O)(O)OP(=O)(O)OC[C@H]3O[C@@H](n4cnc5c(N)ncnc54)[C@H](O)[C@@H]3O)c2cc1C [FAD]
co-purified cofactor; absorption, fluorescence and TLC of denatured protein ([2]; catalytic cofactor, expressed in E. coli without FbiC, fully oxidized as purified): SePhrB[Ec] gave only one yellow fluorescent band with the same Rf value of authentic FAD | co-purified cofactor; absorption, fluorescence and TLC of denatured protein ([3]; catalytic cofactor): the supernatant of AfphrB produced a yellow fluorescent band of FAD | TLC of denatured protein supernatant [4]: each of them had a yellow FAD band
